Results published in patent publication EP2548555A1, “Proton pump inhibitors as immunomodulators” (Fondazione IRCCS Istituto Nazionale dei Tumori, priority 2011, dated 2013).

How the values were obtained:
STAT3 [1] = experiment: pSTAT evaluation in primary monocytes, IL6 stimulation; type: cell-based, human; conditions: pre-treated 3 hours, in response to IL6 (30 min)
B16-OVA melanoma cells = experiment: Tumor extracellular pH (pHe) by magnetic resonance spectroscopy (MRS); type: in vivo, mice; conditions: esomeprazole 12.5 mg/kg i.p.; reached within 60 min; baseline approximately 6.5
B16-OVA cells [2] = experiment: TIL effector function (intracellular IFNγ) after infusion of activated CFSE-labelled OTI cells; type: in vivo, mice
STAT6 [3] = experiment: STAT6 phosphorylation state in circulating monocytes of treated patients; type: in vivo, advanced melanoma patients; conditions: with respect to cells obtained prior to PPI administration
Method: (§1) We also tested the effect of PPI in advanced melanoma patients receiving high dose esomeprazole (120mg/day for 3 days) in the context of a clinical trial testing the ability of PPI pretreatment to sensitized patients to chemotherapy (CISPLATIN).

[4] = test system: Primary human monocytes from HD PBMC; type: cell-based
circulating monocytes = experiment: Ex-vivo cytokine secretion by circulating monocytes of treated patients; type: in vivo, advanced melanoma patients; conditions: after 3 days of high dose PPI treatment
Method: as §1

STAT6 [5] = experiment: pSTAT evaluation in primary monocytes, IL13 stimulation; type: cell-based, human; conditions: pre-treated 3 hours, in response to IL13 (30 min)
B16 melanoma = experiment: Survival of mice bearing B16 melanoma not expressing OVA (OTI control; TBI plus TRP-2-sensitized splenocytes); type: in vivo
B16-OVA = experiment: Survival with adoptive immunotherapy (activated OTI cells) combined with PPI; type: in vivo, mice
[6] = Dosing experiments for tolerated dose; parameters: species or system mice; conditions: mouse, in vivo; dosing experiments ranging from 1.25-600 mg/kg; read-out: highest tolerated dose
B16-OVA melanoma = experiment: Flow cytometry of tumor-infiltrating leukocytes after DC-OVA257-264 vaccination; type: in vivo, mice; conditions: 7-day-old melanomas, DC-OVA257-264 vaccine, PPI i.p. on day 3 post vaccine, analysed after 24h; vs PBS
STAT3 [7] = experiment: STAT3 phosphorylation state in circulating monocytes of treated patients; type: in vivo, advanced melanoma patients; conditions: with respect to cells obtained prior to PPI administration
Method: as §1

STAT1 = experiment: pSTAT evaluation in primary monocytes, IFNa stimulation; type: cell-based, human; conditions: pre-treated 3 hours, in response to IFNa (30 min)
MDSC in peripheral blood = experiment: Peripheral blood cell frequencies in advanced melanoma patients on high dose esomeprazole; type: in vivo; conditions: esomeprazole 120mg/day for 3 days
Method: as §1

[8] = test system: allogenic HLA-matched melanoma cells; conditions: PPI + chemotherapy (CISPLATIN) vs chemotherapy alone
Method: as §1

B16-OVA cells [9] = experiment: Functional avidity of tumor CD8+ T cells in the active immunotherapy model (naïve OTI transfer, DC-OVA257-264 vaccine); type: in vivo, mice; conditions: PPI i.p. at day 11, sacrificed 1 day later; vs PBS
[10] = test system: transgenic adenocarcinoma of the mouse prostate (TRAMP); experiment: IFN-γ production of prostate-infiltrating tumor-specific T cells after HSCT, DLI and DC-Tag-IV vaccination; type: in vivo, mice; conditions: PPI i.p. 3 days after DC-Tag-IV vaccine, killed after 24 h; vs PBS

COc1ccc2nc([S@@+]([O-])Cc3ncc(C)c(OC)c3C)[nH]c2c1 [esomeprazole]
STAT3 phosphorylation (STAT3 [1]): inhibit
tumor pHe (B16-OVA melanoma cells): 7.0
frequency of CFSE+ OT-1 cells (B16-OVA cells [2]; 12-day-old melanoma, PPI 24h after OTI infusion, sacrificed 1 day later, vs PBS): comparable
percentage of CD44+CD8+IFNY+ T cells in tumor-derived CFSE+ T cells (B16-OVA cells [2]; 12-day-old melanoma, PPI 24h after OTI infusion, vs PBS): significantly enhanced
IFNY production by CD8+CD44+ T cells isolated from the spleen, lung and kidney (B16-OVA cells [2]; CFSE+ and CFSE- subsets, PPI- vs PBS-treated groups): did not differ
IFNY production in CFSE- TILs (B16-OVA cells [2]; endogenous T cells, PPI-treated vs PBS-treated mice): higher IFNY production
reduction in STAT6 phosphorylation state (STAT6 [3]): 15%
release of cytokines/chemokines such as IL-8, GRO and MCD ([4]; PPI pretreatment, data not shown): did not affect
cytokine/chemokine secretion ([4]; esomeprazole 100 µg/ml pre-treatment 3 hours, then mel-EXO 100 µg for 24 hours): significantly reduced
ex-vivo secretion of VEGF-A (circulating monocytes; before treatment 120±100): 104±58
ex-vivo secretion of TGFβ (circulating monocytes; before treatment 1809±900): 1502 ± 755 pg/mL
STAT6 phosphorylation (STAT6 [5]): inhibit
survival of mice with B16 melanomas not expressing OVA (B16 melanoma; OTI cells and PPI treatment): did not impact
Survival (B16 melanoma; TBI 600 Rad, TRP-2-sensitized splenocytes plus PPI vs single adoptive transfer of splenocytes only): significantly prolonged
animal survival (B16-OVA; 8-day melanoma, combined treatment with PPI (12.5 mg/kg) and OTI cells, relative to PBS alone): doubling in the overall survival rate
tumor growth inhibition (B16-OVA; PPI administered before OTI adoptive transfer): equal tumor growth inhibition
MTD [6]: 12.5 mg/kg
inflammatory infiltrate of the tumor mass (B16-OVA melanoma): did not substantially modify
reduction in STAT3 phosphorylation state (STAT3 [7]): 20%
STAT1 phosphorylation (STAT1): inhibit
frequency of MDSC in peripheral blood (MDSC in peripheral blood): significantly and rapidly decreases
total CD14+, CD3+, CD4+, CD19+ cells or granulocytes in peripheral blood (MDSC in peripheral blood): no change
tumor immunity in peripheral blood [8]: significant increase
increase in ability of magnetic bead sorted CD8+ T cells to recognize OVA257-264 (B16-OVA cells [9]): by at least one log
population of TIL specifically reacting against the tumor antigen (CD44+IFN-γ+ within CD8+) [10]: markedly increased
